System: chorioallantoic membrane (CAM) of chick embryo
Assay: Chick embryo chorioallantoic membrane (CAM) angiogenesis assay
Assay type: in vivo, chick (white Leghorn)
Settings: 20 μL of 6 mg/mL in PBS on nitrocellulose disk placed on CAM on 7th day, observed 12th day, estimated visually
Excerpt: In this example, the activity of mannose-6-phosphate (M6P) and of the compounds of formulae (I-1), (I-2) and (I-3) as prepared in examples 1 to 3 above, respectively, on the inhibition of angiogenesis was studied, in comparison with three D-mannopyranoside (DM) derivatives having pro-angiogenic activity and thus not forming part of the invention (DM1: methyl 7-amino-6,7-dideoxy-α-D-mannopyranoside; DM2: methyl 6-azido-6-deoxy-α-D-mannopyranoside and DM3: methyl 7-disodiumphosphonato-6,7-dideoxy-α-D-mannohepto-pyranoside). This study was performed on chick embryos according to the method described by Ribatti D. et al., Nat. Protoc., 2006, 1(1), 85-91 with a few minor modifications.
This study was performed on the chorioallantoic membrane (CAM) of chick embryo. The CAM is an extra-embryonic membrane formed on the fourth day of incubation by fusion of the chorion and of the allantois. It allows gas exchange between the chick embryo and the extra-embryonic environment up to the time of birth. This CAM is composed of a very thick capillary network that forms a continuous surface in direct contact with the shell. Rapid capillary proliferation of this membrane continues up to the 11th day; the mitotic index then decreases rapidly and the vascular system reaches its final organization on the 18th day, just before birth (hatching on the 21st day).
Fertilized eggs of a hen of the white Leghorn race were placed in an incubator from the start of embryogenesis, where they were kept under constant humidity at a temperature of 38° C. On the second day of incubation, a window was opened in the shell after removal of 2 to 3 mL of albumin in order to detach the CAM from the shell. The window was then sealed with adhesive tape and the egg was returned to the incubator to continue its development up to the date of the experiment. On the 7th day, pieces of inert synthetic polymers (nitrocellulose filter disks 0.4 cm in diameter) were soaked with 20 μL of each of the solutions of the test compounds (6 mg/mL in PBS) and then positioned on the CAM. The impact of the test substances on the angiogenesis was then observed on the 12th day and the quantitative evaluation of the pro- or anti-angiogenic response was estimated visually.

SMILES | effect on the vascularization of chick embryos
CO[C@H]1O[C@H](CCS(=O)(=O)[O-])[C@@H](O)[C@H](O)[C@@H]1O.[Na+] [(I-1), Methyl 6,7-Dideoxy-7-Sodiumsulfonato-α-d-mannoheptopyranoside] | inhibitory effect
CO[C@H]1OC(CC(=O)O)[C@@H](O)C(O)C1O (stereo partly drawn) [(I-2), (Methyl 6,7-Dideoxy-α-D-Mannoheptopyranosine)uronic acid] | inhibitory effect
CO[C@H]1OC(CC(C(=O)O)C(=O)O)[C@@H](O)C(O)C1O (stereo partly drawn) [(I-3), methyl 6-deoxy-6-malonate-α-D-Mannopyranoside] | inhibitory effect
CO[C@H]1O[C@H](CCN)[C@@H](O)[C@H](O)[C@@H]1O [DM1, methyl 7-amino-6,7-dideoxy-α-D-mannopyranoside, reference compound] | activating effect
CO[C@H]1O[C@H](CN=[N+]=[N-])[C@@H](O)[C@H](O)[C@@H]1O [DM2, methyl 6-azido-6-deoxy-α-D-mannopyranoside, reference compound] | activating effect
CO[C@H]1O[C@H](CCP(=O)([O-])[O-])[C@@H](O)[C@H](O)[C@@H]1O.[Na+].[Na+] [DM3, methyl 7-disodiumphosphonato-6,7-dideoxy-α-D-mannohepto-pyranoside, reference compound] | activating effect
COC1O[C@H](COP(=O)(O)O)[C@@H](O)[C@H](O)[C@@H]1O (stereo partly drawn) [M6P, methyl D-mannopyranoside 6-phosphate] | inhibitory effect
